In test [1] the target is T1, AurA (Homo sapiens, UniProt O14965).
T1 construct: purchased Invitrogen Corporation, Life Technologies
T1 sequence (O14965 1-403): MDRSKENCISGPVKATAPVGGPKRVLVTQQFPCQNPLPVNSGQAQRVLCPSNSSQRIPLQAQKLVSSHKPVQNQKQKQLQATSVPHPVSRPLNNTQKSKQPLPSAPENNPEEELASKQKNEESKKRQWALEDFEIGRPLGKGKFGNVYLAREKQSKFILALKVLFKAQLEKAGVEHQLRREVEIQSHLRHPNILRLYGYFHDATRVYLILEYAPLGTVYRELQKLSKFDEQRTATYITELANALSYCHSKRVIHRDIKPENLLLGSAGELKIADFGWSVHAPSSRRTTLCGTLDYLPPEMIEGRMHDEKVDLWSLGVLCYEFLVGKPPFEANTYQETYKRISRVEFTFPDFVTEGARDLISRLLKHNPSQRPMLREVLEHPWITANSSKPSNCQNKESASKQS
As to the kind of experiment: FRET-based Z'-LYTE kinase assay against AurA. The test is classed as biochemical. As to conditions: for IC50 / inhibition at 10 µM: Z'-LYTE assay; for inhibition at 10 µM: 10μM compound. The protocol:
(§1) The compounds of Formula (I) were tested in the biological test named Kinase-specific Z′-LYTE® assay (Invitrogen Corporation, Life Technologies).

Test [2] concerns the target T2, PDK1 (Homo sapiens, UniProt O15530).
T2 construct: purchased Invitrogen Corporation, Life Technologies
T2 sequence (O15530 1-556): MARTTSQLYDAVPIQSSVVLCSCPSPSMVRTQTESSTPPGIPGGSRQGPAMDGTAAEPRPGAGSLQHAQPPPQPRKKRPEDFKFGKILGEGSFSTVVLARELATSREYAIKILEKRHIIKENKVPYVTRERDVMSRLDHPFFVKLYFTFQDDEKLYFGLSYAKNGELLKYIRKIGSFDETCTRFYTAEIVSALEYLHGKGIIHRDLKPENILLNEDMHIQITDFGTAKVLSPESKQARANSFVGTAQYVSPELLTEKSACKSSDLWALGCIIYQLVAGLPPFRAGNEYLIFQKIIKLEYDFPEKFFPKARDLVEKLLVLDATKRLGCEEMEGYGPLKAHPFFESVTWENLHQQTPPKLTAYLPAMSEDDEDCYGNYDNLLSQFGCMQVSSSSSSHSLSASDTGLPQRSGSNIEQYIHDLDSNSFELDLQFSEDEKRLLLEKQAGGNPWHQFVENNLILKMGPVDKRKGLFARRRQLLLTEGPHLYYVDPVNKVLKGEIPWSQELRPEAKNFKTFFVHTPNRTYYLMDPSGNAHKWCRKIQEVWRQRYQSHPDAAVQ
Kind of test: FRET-based Z'-LYTE kinase assay against PDK1. The test is classed as biochemical. The protocol: as §1

Test [3] relates to cancer stem cell (CSC) neurospheres obtained from U87MG cells. Kind of test: CSC (GBM stem cell) proliferation, MTS assay. The test is classed as cell-based. As to conditions: seven days of treatment. The protocol: FIG. 3 illustrates the effects of SA16 on CSC proliferation of example 3b. CSCs were treated in complete neurosphere medium with different concentrations of SA16 (1 nM-100 μM) for seven days. At the end of treatment, cell proliferation was measured using the MTS assay. The data are expressed as a percentage with respect to that of untreated cells (control), which was set to 100%, and are the mean values±SEM of three independent experiments, each performed in duplicate. IC50 value after seven days of treatment were calculated from sigmoid dose-response curve;
FIG. 4 illustrates combined inhibition of PDK1 and Aurora A on CSCs proliferation of example 3b. CSCs were treated in complete medium with different concentrations of MP7, in the presence or absence of Alisertib, for seven days. At the end of treatment, cell proliferation was measured using the MTS assay.
The data are expressed as a percentage with respect to that of untreated cells (control), which was set to 100%, and are the mean values±SEM of three independent experiments, each performed in duplicate. The significance of the differences was determined with a one-way ANOVA with Bonferroni post-test: * p<0.05, *** p<0.001 vs. control cells; ## p<0.01, ### p<0.001 vs. cells treated with MP7 alone; §§ p<0.01, § § § p<0.001 vs. cells treated with Alisertib alone;
The inventors also examined the effects of SA16 compound on cancer stem cell (CSC) neurospheres obtained from U87MG cells.

In test [4] the test system is U87MG cells. Kind of test: U87MG cell proliferation, MTS assay. The test is classed as cell-based. As to conditions: 72 h, 1 nM-10 μM. The protocol: FIG. 1 illustrates the effects of SA16 on U87MG cell proliferation of example 3 (a). U87MG cells were treated in complete medium with different concentrations of SA16 (1 nM-100 μM) for 72 h. At the end of treatment, cell proliferation was measured using the MTS assay. The data are expressed as a percentage with respect to that of untreated cells (control), which was set to 100%, and are the mean values±SEM of three independent experiments, each performed in duplicate. The significance of the differences was determined with a one-way ANOVA with Bonferroni post-test: * p<0.05, ** p<0.01, *** p<0.001 vs. control cells;
FIG. 2 illustrates the combined inhibition of PDK1 and Aurora A on U87MG cell proliferation of example 3a. U87MG cells were treated in complete medium with different concentrations of MP7, in the presence or absence of Alisertib, for 72 h. At the end of treatment, cell proliferation was measured using the MTS assay. The data are expressed as a percentage with respect to that of untreated cells (control), which was set to 100%, and are the mean values±SEM of three independent experiments, each performed in duplicate. The significance of the differences was determined with a one-way ANOVA with Bonferroni post-test: * p<0.05, *** p<0.001 vs. control cells; ## p<0.01, ### p<0.001 vs. cells treated with MP7 alone; §§ p<0.01, § § § p<0.001 vs. cells treated with Alisertib alone;
To examine the effects of SA16 on U87MG cell growth/survival, U87MG cells were incubated with different concentrations of the compound SA16 (1 nM-10 μM) for 72 h.
In parallel experiments, U87MG proliferation was assessed in the presence of a well-known PDK1 inhibitor MP7, alone or in combination with the Aurora A inhibitor, Alisertib.

As for `Cc1ccc(C(=O)N[C@@H](C(=O)Nc2ccc3c(c2)/C(=C/c2cnc[nH]2)C(=O)N3)c2ccccc2)c(=O)n1Cc1ccc(F)c(F)c1` [Compound V18, (R,Z)—N-(2-((3-((1H-imidazol-5-yl)methylene)-2-oxoindolin-5-yl)amino)-2-oxo-1-phenylethyl)-1-(3,4-difluorobenzyl)-6-methyl-2-oxo-1,2-dihydropyridine-3-carboxamide], the IC50 in test [1] worked out at 69.8 nM; in test [2] (Z'-LYTE assay), 148 nM.
For `Cc1c(Br)cc(C(=O)N[C@@H](C(=O)Nc2ccc3c(c2)/C(=C/c2cnc[nH]2)C(=O)N3)c2ccccc2)c(=O)n1Cc1ccc(F)c(F)c1` [Compound V118, (R,Z)—N-(2-((3-((1H-imidazol-5-yl)methylene)-2-oxoindolin-5-yl)amino)-2-oxo-1-phenylethyl)-5-bromo-1-(3,4-difluorobenzyl)-6-methyl-2-oxo-1,2-dihydropyridine-3-carboxamide], the IC50 in test [1] amounted to 118 nM; in test [2] (Z'-LYTE assay), 475 nM.
In test [1], `Cc1c(Br)cc(C(=O)NCC(=O)Nc2ccc3c(c2)/C(=C/c2cnc[nH]2)C(=O)N3)c(=O)n1Cc1ccc(F)c(F)c1` [Compound V123, (Z)—N-(2-((3-((1H-imidazol-5-yl)methylene)-2-oxoindolin-5-yl)amino)-2-oxoethyl)-5-bromo-1-(3,4-difluorobenzyl)-6-methyl-2-oxo-1,2-dihydropyridine-3-carboxamide] came in with an inhibition at 10 µM of 52%. In test [2] (Z'-LYTE assay), the IC50 was found to be 134 nM.
Consider `O=C(CCNC(=O)c1cccn(Cc2ccc(F)c(F)c2)c1=O)Nc1ccc2c(c1)/C(=C/c1cnc[nH]1)C(=O)N2` [DD21, (Z)—N-(3-((3-((1H-imidazol-5-yl)methylene)-2-oxoindolin-5-yl)amino)-3-oxopropyl)-1-(3,4-difluorobenzyl)-2-oxo-1,2-dihydropyridine-3-carboxamide], for which the figures for the IC50 in test [1] and in test [2] (Z'-LYTE assay) were 2470 nM and 103 nM, respectively.
On to `O=C(CCCNC(=O)c1cccn(Cc2ccc(F)c(F)c2)c1=O)Nc1ccc2c(c1)/C(=C/c1cnc[nH]1)C(=O)N2` [DF8, (Z)—N-(4-((3-((1H-imidazol-5-yl)methylene)-2-oxoindolin-5-yl)amino)-4-oxobutyl)-1-(3,4-difluorobenzyl)-2-oxo-1,2-dihydropyridine-3-carboxamide], for which, in test [1], the “inhibition of AurA kinase (in words)” value was “best effects” and the IC50 is 611 nM. The “inhibition of PDK1 kinase (in words)” value in test [2] is reported as “best effects”. Moreover, the IC50 in test [2] (Z'-LYTE assay) was 245 nM.
In turn, `O=C(CNC(=O)c1cccn(Cc2ccc(F)c(F)c2)c1=O)Nc1ccc2c(c1)/C(=C/c1cnc[nH]1)C(=O)N2` [IB35, (Z)—N-(2-((3-((1H-imidazol-5-yl)methylene)-2-oxoindolin-5-yl)amino)-2-oxoethyl)-1-(3,4-difluorobenzyl)-2-oxo-1,2-dihydro pyridine-3-carboxamide] came in with an IC50 in test [1] of 289 nM.
Consider `O=C1Nc2ccc(NC(=O)[C@H](NC(=O)c3cccn(Cc4ccc(F)c(F)c4)c3=O)c3ccccc3)cc2/C1=C/c1cnc[nH]1` [SA16, (Z)—(R)—N-(2-((3-((1H-imidazol-5-yl)methylene)-2-oxoindolin-5-yl)amino)-2-oxo-1-phenylethyl)-1-(3,4-difluorobenzyl)-2-oxo-1,2-dihydropyridine-3-carboxamide], for which the IC50 in test [1] was 35 nM; in test [3] (Homo sapiens, U-87 MG, 168 h, read-out: IC50 of inhibition of GSC proliferation), 8.33 ± 0.78 nM. Further, the “maximal percentage of inhibition of GSC proliferation” value in test [3] is reported as 80.0±2.0%. Besides, the “maximal percentage of inhibition of U87MG cell proliferation” value in test [4] is given as 49.4±2%.
Take `Cc1ccc(C(=O)NCC(=O)Nc2ccc3c(c2)/C(=C/c2cnc[nH]2)C(=O)N3)c(=O)n1Cc1ccc(F)c(F)c1` [SST200, (Z)—N-(2-((3-((1H-imidazol-5-yl)methylene)-2-oxoindolin-5-yl)amino)-2-oxoethyl)-1-(3,4-difluorobenzyl)-6-methyl-2-oxo-1,2-dihydropyridine-3-carboxamide]: the IC50 in test [1] is 193 nM; in test [2] (Z'-LYTE assay) it was 103 nM.
`O=C(CNC(=O)c1cc2cccnc2n(Cc2ccc(F)c(F)c2)c1=O)Nc1ccc2c(c1)/C(=C/c1cnc[nH]1)C(=O)N2` [SST201, (Z)—N-(2-((3-((1H-imidazol-5-yl)methylene)-2-oxoindolin-5-yl)amino)-2-oxoethyl)-1-(3,4-difluorobenzyl)-2-oxo-1,2-dihydro-1,8-naphthyridine-3-carboxamide]: the inhibition at 10 µM in test [1] turned out to be 43%; in test [2] (10μM compound, Z'-LYTE assay) it was 35%.

The values are drawn from US20190160049A1, “2-OXO-1,2-DIHYDROPYRIDINE-3-CARBOXAMIDE COMPOUNDS AND THEIR USE AS DUAL INHIBITORS OF PDK1/AURA” (INTERNATIONAL SOCIETY FOR DRUG DEVELOPMENT S.R.L., priority 2016, published 2019).
